Results published in ChEMBL document CHEMBL1201862, “PubChem BioAssay data set” (2004).
“And” between values parts separate entries of the source, which are not always exact repeats. Equal values may be shown once.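 Interpolation was linear, between the two tested concentrations surrounding the appropriate level; five concentrations were tested over 48 hours in 96-well plates. GI50 is the concentration that inhibits growth by half.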 The source made the active and inactive calls. Rule as the data show it: active = GI50 up to about 1.1 µM and inactive = higher. Residues, ends and D or L forms follow the SMILES beside them. *: point of attachment. Boc = CC(C)(C)OC(=O)*; Bn = c1ccc(C*)cc1

Columns and labels:
Experiment in all cases: inhibition of tumour cell growth, NCI panel, 48 h
SNB-75 = test system: SNB-75
HL-60 = test system: HL-60
M14 = test system: M14
HT-29 = test system: HT-29
SF-295 = test system: SF-295
OVCAR-3 = test system: OVCAR-3
SN12C = test system: SN12C
SW-620 = test system: SW-620
OVCAR-8 = test system: OVCAR-8
SF-539 = test system: SF-539
SK-MEL-5 = test system: SK-MEL-5
RXF 393 = test system: RXF 393
ACHN = test system: ACHN
UACC-62 = test system: UACC-62
SK-MEL-28 = test system: SK-MEL-28
SR = test system: SR
SNB-19 = test system: SNB-19
A549 = test system: A549
TK-10 = test system: TK-10
HCC 2998 = test system: HCC 2998
NCI-H23 = test system: NCI-H23
SK-MEL-2 = test system: SK-MEL-2
BT-549 = test system: BT-549
LOX IMVI = test system: LOX IMVI
786-0 = test system: 786-0
NCI/ADR-RES = test system: NCI/ADR-RES
UACC-257 = test system: UACC-257
HCT-116 = test system: HCT-116
SF-268 = test system: SF-268
U-251 = test system: U-251
COLO 205 = test system: COLO 205
OVCAR-4 = test system: OVCAR-4
OVCAR-5 = test system: OVCAR-5
HOP-62 = test system: HOP-62
KM12 = test system: KM12
K562 = test system: K562
Malme-3M = test system: Malme-3M
DU-145 = test system: DU-145
HCT-15 = test system: HCT-15
NCI-H226 = test system: NCI-H226
IGROV-1 = test system: IGROV-1
PC-3 = test system: PC-3
MDA-MB-435 = test system: MDA-MB-435
CCRF-CEM = test system: CCRF-CEM
MCF7 = test system: MCF7
SK-OV-3 = test system: SK-OV-3
MDA-MB-231 = test system: MDA-MB-231
Hs-578T = test system: Hs-578T
HOP-92 = test system: HOP-92
MDA-N = test system: MDA-N
NCI-H460 = test system: NCI-H460
RPMI-8226 = test system: RPMI-8226
MOLT-4 = test system: MOLT-4
UO-31 = test system: UO-31
EKVX = test system: EKVX
NCI-H522 = test system: NCI-H522
CAKI-1 = test system: CAKI-1
T47D = test system: T47D
A498 = test system: A498

O=C(ON=c1c2ccccc2ccc2ccccc12)c1cc([N+](=O)[O-])cc([N+](=O)[O-])c1
GI50 (SNB-75): 40.8 µM (inactive)
GI50 (HL-60): 28 µM (inactive)
GI50 (M14): > 100 µM (inactive)
GI50 (HT-29): 94.4 µM (inactive)
GI50 (SF-295): 43.8 µM (inactive)
GI50 (OVCAR-3): 94.6 µM (inactive)
GI50 (SN12C): 67.1 µM (inactive)
GI50 (SW-620): > 100 µM (inactive)
GI50 (OVCAR-8): 94.8 µM (inactive)
GI50 (SF-539): > 100 µM (inactive)
GI50 (SK-MEL-5): 50.5 µM (inactive)
GI50 (RXF 393): > 100 µM (inactive)
GI50 (ACHN): 45.4 µM (inactive)
GI50 (UACC-62): 63.4 µM (inactive)
GI50 (SK-MEL-28): > 100 µM (inactive)
GI50 (SR): 35.2 µM (inactive)
GI50 (SNB-19): > 100 µM (inactive)
GI50 (A549): 49.8 µM (inactive)
GI50 (TK-10): > 100 µM (inactive)
GI50 (HCC 2998): 75.2 µM (inactive)
GI50 (NCI-H23): > 100 µM (inactive)
GI50 (SK-MEL-2): > 100 µM (inactive)
GI50 (BT-549): 54.8 µM (inactive)
GI50 (LOX IMVI): 90.2 µM (inactive)
GI50 (786-0): > 100 µM (inactive)
GI50 (NCI/ADR-RES): 48.4 µM (inactive)
GI50 (UACC-257): > 100 µM (inactive)
GI50 (HCT-116): 87.3 µM (inactive)
GI50 (SF-268): > 100 µM (inactive)
GI50 (U-251): 70.6 µM (inactive)
GI50 (COLO 205): > 100 µM (inactive)
GI50 (OVCAR-4): 38.2 µM (inactive)
GI50 (OVCAR-5): > 100 µM (inactive)
GI50 (HOP-62): > 100 µM (inactive)
GI50 (KM12): 49 µM (inactive)
GI50 (K562): 21.8 µM (inactive)
GI50 (Malme-3M): 16.8 µM (inactive)
GI50 (DU-145): 97.3 µM (inactive)
GI50 (HCT-15): 53 µM
GI50 (NCI-H226): > 100 µM (inactive)
GI50 (IGROV-1): > 100 µM (inactive)
GI50 (PC-3): 41.8 µM (inactive)
GI50 (MDA-MB-435): > 100 µM (inactive)
GI50 (CCRF-CEM): 25.5 µM (inactive)
GI50 (MCF7): 65 µM (inactive)
GI50 (SK-OV-3): > 100 µM (inactive)
GI50 (MDA-MB-231): > 100 µM (inactive)
GI50 (Hs-578T): 76.7 µM (inactive)
GI50 (HOP-92): 23.1 µM (inactive)
GI50 (MDA-N): 83.8 µM (inactive)
GI50 (NCI-H460): > 100 µM (inactive)
GI50 (RPMI-8226): 48.5 µM (inactive)
GI50 (MOLT-4): 31.8 µM (inactive)
GI50 (UO-31): 48 µM (inactive)
GI50 (EKVX): 89.9 µM (inactive)

CNC(=O)C(CC(C)C)NC(=O)C(C)NC(=O)C(Cc1ccc(OCc2ccccc2)cc1)NC(=O)C(COCc1ccccc1)NC(=O)OC(C)(C)C (stereo not given) (Boc-S(Bn)Y(Bn)AL-NHMe; configuration not given here)
GI50 (HT-29): 13.6 µM (inactive) and 13.4 µM (inactive)
GI50 (SW-620): 11.5 µM (inactive) and 8.65 µM (inactive)
GI50 (OVCAR-8): 16.9 µM (inactive) and 17.1 µM (inactive)
GI50 (SF-539): > 42.2 µM (inactive)
GI50 (NCI-H522): > 10 µM (inactive) and 13.8 µM (inactive)
GI50 (UACC-62): 18.5 µM (inactive) and > 10 µM (inactive)
GI50 (CAKI-1): 32.5 µM (inactive) and > 64 µM (inactive)
GI50 (SR): 15.1 µM (inactive) and 8.55 µM (inactive)
GI50 (SNB-19): 30 µM (inactive) and 17.4 µM (inactive)
GI50 (NCI-H23): 20.1 µM (inactive) and 27.2 µM (inactive)
GI50 (BT-549): 18.5 µM (inactive) and 22 µM (inactive)
GI50 (LOX IMVI): 16.5 µM (inactive) and 11.4 µM (inactive)
GI50 (786-0): 22.8 µM (inactive) and 20.7 µM (inactive)
GI50 (NCI/ADR-RES): > 100 µM (inactive)
GI50 (UACC-257): > 100 µM (inactive)
GI50 (HCT-116): 6.5 µM (inactive) and 7.45 µM (inactive)
GI50 (SF-268): 17.5 µM (inactive) and 22.9 µM (inactive)
GI50 (U-251): 15.9 µM (inactive) and 8.57 µM (inactive)
GI50 (OVCAR-4): 17.9 µM (inactive) and 20.6 µM (inactive)
GI50 (HOP-62): 20.5 µM (inactive) and 22.6 µM (inactive)
GI50 (KM12): 17 µM (inactive) and 18.2 µM (inactive)
GI50 (K562): 9.95 µM (inactive) and 12.6 µM (inactive)
GI50 (DU-145): 65.5 µM (inactive)
GI50 (HCT-15): > 100 µM
GI50 (IGROV-1): 22.3 µM (inactive) and 23.1 µM (inactive)
GI50 (MCF7): 10.7 µM (inactive) and 16.1 µM (inactive)
GI50 (SK-OV-3): 18.5 µM (inactive) and 27.7 µM (inactive)
GI50 (MDA-MB-231): 15.6 µM (inactive) and 16.6 µM (inactive)
GI50 (Hs-578T): 25 µM (inactive) and 15.8 µM (inactive)
GI50 (HOP-92): 24.9 µM (inactive) and 30.5 µM (inactive)
GI50 (MDA-N): 12.1 µM (inactive) and 14.8 µM (inactive)
GI50 (MOLT-4): 6.85 µM (inactive) and 6.15 µM (inactive)
GI50 (UO-31): > 100 µM (inactive)

CNC(=O)N(CCC#N)CCN(C(=O)NC)c1ccccc1
GI50 (T47D): > 100 µM (inactive)
GI50 (SNB-75): 65 µM (inactive)
GI50 (M14): > 100 µM (inactive)
GI50 (HT-29): > 100 µM (inactive)
GI50 (SF-295): > 100 µM (inactive)
GI50 (OVCAR-3): > 100 µM (inactive)
GI50 (SN12C): > 100 µM (inactive)
GI50 (SW-620): > 100 µM (inactive)
GI50 (OVCAR-8): > 100 µM (inactive)
GI50 (SF-539): > 100 µM (inactive)
GI50 (NCI-H522): > 100 µM (inactive)
GI50 (SK-MEL-5): > 100 µM (inactive)
GI50 (RXF 393): > 100 µM (inactive)
GI50 (ACHN): > 100 µM (inactive)
GI50 (UACC-62): > 100 µM (inactive)
GI50 (SK-MEL-28): > 100 µM (inactive)
GI50 (A498): > 100 µM (inactive)
GI50 (CAKI-1): > 100 µM (inactive)
GI50 (SR): > 100 µM (inactive)
GI50 (SNB-19): > 100 µM (inactive)
GI50 (A549): > 100 µM (inactive)
GI50 (TK-10): > 100 µM (inactive)
GI50 (HCC 2998): > 100 µM (inactive)
GI50 (NCI-H23): > 100 µM (inactive)
GI50 (SK-MEL-2): > 100 µM (inactive)
GI50 (BT-549): > 100 µM (inactive)
GI50 (LOX IMVI): > 100 µM (inactive)
GI50 (786-0): > 100 µM (inactive)
GI50 (NCI/ADR-RES): > 100 µM (inactive)
GI50 (UACC-257): > 100 µM (inactive)
GI50 (HCT-116): > 100 µM (inactive)
GI50 (SF-268): > 100 µM (inactive)
GI50 (U-251): > 100 µM (inactive)
GI50 (COLO 205): > 100 µM (inactive)
GI50 (OVCAR-4): > 100 µM (inactive)
GI50 (OVCAR-5): > 100 µM (inactive)
GI50 (HOP-62): > 100 µM (inactive)
GI50 (KM12): > 100 µM (inactive)
GI50 (K562): > 100 µM (inactive)
GI50 (Malme-3M): > 73.8 µM (inactive)
GI50 (DU-145): > 100 µM (inactive)
GI50 (HCT-15): > 100 µM
GI50 (NCI-H226): > 100 µM (inactive)
GI50 (IGROV-1): > 100 µM (inactive)
GI50 (PC-3): > 100 µM (inactive)
GI50 (MDA-MB-435): > 100 µM (inactive)
GI50 (CCRF-CEM): > 100 µM (inactive)
GI50 (MCF7): > 100 µM (inactive)
GI50 (SK-OV-3): > 100 µM (inactive)
GI50 (MDA-MB-231): > 100 µM (inactive)
GI50 (HOP-92): > 100 µM (inactive)
GI50 (MDA-N): > 100 µM (inactive)
GI50 (NCI-H460): > 100 µM (inactive)
GI50 (RPMI-8226): > 100 µM (inactive)
GI50 (MOLT-4): > 100 µM (inactive)
GI50 (UO-31): > 100 µM (inactive)
GI50 (EKVX): > 100 µM (inactive)
